From patent US9226916B2, “Pyrrolidine derivatives” (HOFFMANN-LA ROCHE INC., priority 2009, dated 2016)
Like-named read-outs stand apart in the source and are kept apart here.

Biological target: T1, recombinant human NK3 receptor (Homo sapiens, UniProt P29371)
T1 construct: expressed in transfected cells; host or cells: HEK293 cells, transient expression; membranes
T1 sequence (P29371 1-465): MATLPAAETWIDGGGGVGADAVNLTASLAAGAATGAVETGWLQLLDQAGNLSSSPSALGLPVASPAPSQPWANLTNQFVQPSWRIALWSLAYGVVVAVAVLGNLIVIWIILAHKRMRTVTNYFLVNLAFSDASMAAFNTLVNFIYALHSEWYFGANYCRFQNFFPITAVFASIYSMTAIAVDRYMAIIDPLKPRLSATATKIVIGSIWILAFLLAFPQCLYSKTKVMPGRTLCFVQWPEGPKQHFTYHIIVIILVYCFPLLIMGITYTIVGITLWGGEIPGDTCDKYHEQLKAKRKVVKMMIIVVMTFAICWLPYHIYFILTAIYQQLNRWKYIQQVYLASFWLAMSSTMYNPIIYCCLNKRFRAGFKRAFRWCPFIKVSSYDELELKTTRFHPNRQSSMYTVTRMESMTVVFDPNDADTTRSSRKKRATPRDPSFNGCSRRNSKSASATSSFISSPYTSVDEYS
Assay: [3H]SR142801 competition binding assay

[1] = hNK-3 receptor affinity, membranes from HEK293 cells transiently expressing recombinant human NK3 receptor, [3H]SR142801, Cheng-Prussoff, read-out: Data Ki

Structure (SMILES) | Ki [nM] | Ki [1] [nM]
CN(C(=O)OCC1CCC(F)(F)CC1)[C@H]1CN(C(=O)C2CCN(C(=O)C3(C)CC3)CC2)C[C@@H]1c1ccc(Cl)c(Cl)c1 (racemic) [Example 99, rac {(3R,4S)-4-(3,4-Dichloro-phenyl)-1-[1-(1-methyl-cyclopropanecarbonyl)-piperidine-4-carbonyl]-pyrrolidin-3-yl}-methyl-carbamic acid 4,4-difluoro-cyclohexylmethyl ester] | 1.6 | –
CN(C(=O)OC1CCC(F)(F)CC1)[C@H]1CN(C(=O)C2CCN(C(=O)C3(C)CC3)CC2)C[C@@H]1c1ccc(Cl)c(Cl)c1 (racemic) [Example 102, rac-{(3R,4S)-4-(3,4-Dichloro-phenyl)-1-[1-(1-methyl-cyclopropanecarbonyl)-piperidine-4-carbonyl]-pyrrolidin-3-yl}-methyl-carbamic acid 4,4-difluoro-cyclohexyl ester] | 4 | –
CN(C(=O)OC1CCC(C(F)(F)F)CC1)[C@H]1CN(C(=O)C2CCN(C(=O)C3(C)CC3)CC2)C[C@@H]1c1ccc(Cl)c(Cl)c1 (mixture of isomers) [Example 103, rac-{(3R,4S)-4-(3,4-Dichloro-phenyl)-1-[1-(1-methyl-cyclopropanecarbonyl)-piperidine-4-carbonyl]-pyrrolidin-3-yl}-methyl-carbamic acid 4-trifluoromethyl-cyclohexyl ester] | – | 1.8
CN(C(=O)OCC1CCC(F)(F)C1)[C@H]1CN(C(=O)C2CCN(C(=O)C3(C)CC3)CC2)C[C@@H]1c1ccc(Cl)c(Cl)c1 (mixture of isomers) [Example 111, rac-{(3R,4S)-4-(3,4-Dichloro-phenyl)-1-[1-(1-methyl-cyclopropanecarbonyl)-piperidine-4-carbonyl]-pyrrolidin-3-yl}-methyl-carbamic acid 3,3-difluoro-cyclopentylmethyl ester] | 4.4 | –
CN(C(=O)Oc1ccc(F)cc1)[C@@H]1CN(C(=O)C2CCN(c3ccc(C(=O)NC(C)(C)C)cn3)CC2)C[C@H]1c1ccc(Cl)cc1 (racemic) [Example 120, rac-[(3S,4R)-1-(5′-tert-Butylcarbamoyl-3,4,5,6-tetrahydro-2H-[1,2′]bipyridinyl-4-carbonyl)-4-(4-chloro-phenyl)-pyrrolidin-3-yl]-methyl-carbamic acid 4-fluoro-phenyl ester] | 1.6 | –
CN(C(=O)O[C@H]1CC[C@H](C(F)(F)F)CC1)[C@@H]1CN(C(=O)C2CCN(c3ccc(C(=O)NC(C)(C)C)cn3)CC2)C[C@H]1c1ccc(Cl)cc1 (racemic) [Example 121, rac-[(3S,4R)-1-(5′-tert-Butylcarbamoyl-3,4,5,6-tetrahydro-2H-[1,2′]bipyridinyl-4-carbonyl)-4-(4-chloro-phenyl)-pyrrolidin-3-yl]-methyl-carbamic acid 4-trifluoromethyl-cyclohexyl ester] | 6.6 | –
CN(C(=O)OCCCC(F)(F)F)[C@@H]1CN(C(=O)C2CCN(c3ccc(C(=O)NC(C)(C)C)cn3)CC2)C[C@H]1c1ccc(Cl)cc1 (racemic) [Example 124, rac-[(3S,4R)-1-(5′-tert-Butylcarbamoyl-3,4,5,6-tetrahydro-2H-[1,2′]bipyridinyl-4-carbonyl)-4-(4-chloro-phenyl)-pyrrolidin-3-yl]-methyl-carbamic acid 4,4,4-trifluoro-butyl ester] | 40.2 | –
CN(C(=O)OCCC(F)(F)F)[C@H]1CN(C(=O)C2CCN(C(=O)C3(C)CC3)CC2)C[C@@H]1c1ccc(Cl)c(Cl)c1 (single isomer, unassigned) [Example 29] | 14.9 | –
CN(C(=O)Oc1ccc(F)cc1)[C@H]1CN(C(=O)[C@H]2CC[C@H](O)CC2)C[C@@H]1c1ccc(Cl)c(Cl)c1 (stereo in doubt) [Example 45, [(3R,4S)-4-(3,4-Dichloro-phenyl)-1-(trans-4-hydroxy-cyclohexanecarbonyl)-pyrrolidin-3-yl]-methyl-carbamic acid 4-fluoro-phenyl ester] | 3.2 | –
CN(C(=O)OCCC1CC1)[C@H]1CN(C(=O)C2CCN(C(=O)C3(C)CC3)CC2)C[C@@H]1c1ccc(Cl)cc1 (stereo in doubt) [Example 54, rac-{(3R,4S)-4-(4-Chloro-phenyl)-1-[1-(1-methyl-cyclopropanecarbonyl)-piperidine-4-carbonyl]-pyrrolidin-3-yl}-methyl-carbamic acid 2-cyclopropyl-ethyl ester] | – | 26.4
CN(C(=O)Oc1ccc(F)cc1)[C@@H]1CN(C(=O)C2CCN(C(=O)C3(C)CC3)CC2)C[C@@H]1c1ccc(Cl)c(Cl)c1 (stereo in doubt) [Example 62, {(3S,4S)-4-(3,4-Dichloro-phenyl)-1-[1-(1-methyl-cyclopropanecarbonyl)-piperidine-4-carbonyl]-pyrrolidin-3-yl}-methyl-carbamic acid 4-fluoro-phenyl ester] | 31.4 | –
CN(C(=O)OCCC1CC1)[C@@H]1CN(C(=O)C2CCN(C(=O)C3(C)CC3)CC2)C[C@H]1c1ccc(Cl)cc1 (stereo in doubt) [Example 64, {(3S,4R)-4-(4-Chloro-phenyl)-1-[1-(1-methyl-cyclopropanecarbonyl)-piperidine-4-carbonyl]-pyrrolidin-3-yl}-methyl-carbamic acid 2-cyclopropyl-ethyl ester] | – | 15.2
CN(C(=O)OCCC(F)(F)F)[C@H]1CN(C(=O)C2CCN(C(=O)C3(C)CC3)CC2)C[C@@H]1c1ccc(Cl)c(Cl)c1 (stereo in doubt) [Example 86, {(3R,4S)-4-(3,4-dichloro-phenyl)-1-[1-(1-methyl-cyclopropanecarbonyl)-piperidine-4-carbonyl]-pyrrolidin-3-yl}-methyl-carbamic acid 3,3,3-trifluoro-propyl ester] | 60.4 | –
CN(C(=O)OCCC(F)(F)F)[C@@H]1CN(C(=O)C2CCN(C(=O)C3(C)CC3)CC2)C[C@H]1c1ccc(Cl)c(Cl)c1 (stereo in doubt) [Example 87, {(3S,4R)-4-(3,4-Dichloro-phenyl)-1-[1-(1-methyl-cyclopropanecarbonyl)-piperidine-4-carbonyl]-pyrrolidin-3-yl}-methyl-carbamic acid 3,3,3-trifluoro-propyl ester] | 9.2 | –
CN(C(=O)O[C@H]1CC[C@H](C(F)(F)F)CC1)[C@@H]1CN(C(=O)C2CCN(C3CCOCC3)CC2)CC1c1ccc(Cl)c(Cl)c1 (stereo in doubt) [Example 123, {(3S,4R)-4-(3,4-Dichloro-phenyl)-1-[1-(tetrahydro-pyran-4-yl)-piperidine-4-carbonyl]-pyrrolidin-3-yl}-methyl-carbamic acid 4-trifluoromethyl-cyclohexyl ester] | 2.8 | –
CN(C(=O)Oc1ccc(F)cc1)[C@H]1CN(C(=O)C2CCN(C(=O)C3(C)CC3)CC2)C[C@@H]1c1ccc(Cl)c(Cl)c1 [Example 5, {(3R,4S)-4-(3,4-Dichloro-phenyl)-1-[1-(1-methyl-cyclopropanecarbonyl)-piperidine-4-carbonyl]-pyrrolidin-3-yl}-methyl-carbamic acid 4-fluoro-phenyl ester] | 56.2 | –
CN(C(=O)Oc1ccc(F)cc1)[C@@H]1CN(C(=O)C2CCN(C(=O)C3(C)CC3)CC2)C[C@H]1c1ccc(Cl)c(Cl)c1 [Example 6, {(3S,4R)-4-(3,4-Dichloro-phenyl)-1-[1-(1-methyl-cyclopropanecarbonyl)-piperidine-4-carbonyl]-pyrrolidin-3-yl}-methyl-carbamic acid 4-fluoro-phenyl ester] | 0.5 | –
Cc1ccc(OC(=O)N(C)[C@@H]2CN(C(=O)C3CCN(C(=O)C4(C)CC4)CC3)C[C@H]2c2ccc(Cl)c(Cl)c2)cc1 [Example 17, {(3S,4R)-4-(3,4-Dichloro-phenyl)-1-[1-(1-methyl-cyclopropanecarbonyl)-piperidine-4-carbonyl]-pyrrolidin-3-yl}-methyl-carbamic acid p-tolyl ester] | 0.7 | –
CN(C(=O)Oc1ccc(Cl)cc1)[C@@H]1CN(C(=O)C2CCN(C(=O)C3(C)CC3)CC2)C[C@H]1c1ccc(Cl)c(Cl)c1 [Example 19, {(3S,4R)-4-(3,4-Dichloro-phenyl)-1-[1-(1-methyl-cyclopropanecarbonyl)-piperidine-4-carbonyl]-pyrrolidin-3-yl}-methyl-carbamic acid 4-chlorophenyl ester] | 0.2 | –
COc1ccc(OC(=O)N(C)[C@H]2CN(C(=O)C3CCN(CC4CC4)CC3)C[C@@H]2c2ccc(Cl)c(Cl)c2)cc1 [Example 20, [(3R,4S)-1-(1-Cyclopropylmethyl-piperidine-4-carbonyl)-4-(3,4-dichloro-phenyl)-pyrrolidin-3-yl]-methyl-carbamic acid 4-methoxy-phenyl ester] | 72.4 | –
COc1ccc(OC(=O)N(C)[C@@H]2CN(C(=O)C3CCN(CC4CC4)CC3)C[C@H]2c2ccc(Cl)c(Cl)c2)cc1 [Example 21, [(3S,4R)-1-(1-Cyclopropylmethyl-piperidine-4-carbonyl)-4-(3,4-dichloro-phenyl)-pyrrolidin-3-yl]-methyl-carbamic acid 4-methoxy-phenyl ester] | 10.4 | –
CN(C(=O)OCCC1CC1)[C@H]1CN(C(=O)C2CCN(C(=O)C3(C)CC3)CC2)C[C@@H]1c1ccc(Cl)c(Cl)c1 [Example 35, {(3R,4S)-4-(3,4-Dichloro-phenyl)-1-[1-(1-methyl-cyclopropanecarbonyl)-piperidine-4-arbonyl]-pyrrolidin-3-yl}-methyl-carbamic acid 2-cyclopropyl-ethyl ester] | – | 81.1
